Data taken from patent US5254577A, “Aminomethyloxooxazolidinyl arylbenzene derivatives useful as antibacterial agents” (The Du Pont Merck Pharmaceutical Company, priority 1992, dated 1993).
In brackets after ≈: the same amount, converted by molar mass. Where two headings read alike, the source gives them in different places.

Legend:
[1] = test system: Escherichia coli; assay: In vitro broth microdilution, 24-hour minimal inhibitory concentration (MIC); format: cell-based; details: Mueller-Hinton broth, read-out: Minimum Inhibitory Concentration
Excerpt: (§1) A standard microdilution method (National Committee for Clinical Standards. Tentative standard M7-T. Standard methods for dilution antimicrobial susceptibility tests for bacteria that grow aerobically. National Committee for Clinical Laboratory Standards, Villanova, Pa. 1982) with Mueller-Hinton broth is used to determine the 24-hour minimal inhibitory concentrations (MIC's) for test strains of Staphylococcus aureus and Escherichia coli.

[2] = test system: Staphylococcus aureus; assay: as above; format: cell-based; details: Mueller-Hinton broth; for MIC: read-out: Minimum Inhibitory Concentration
Excerpt: as §1

[3] = test system: Staphylococcus aureus; assay: In vivo activity against Staphylococcus aureus in an acute lethal mouse model; details: mice infected intraperitoneally, dosed 1 h and 4 h post-infection, survivors on seventh day
Description: The in vivo potency of these compounds is exemplified by the data summarized in Table X. Determinations of in vivo efficacy are performed by inoculating mice intraperitoneally with cultures of the infecting organism diluted to produce 100% mortality in control animals within twenty-four hours. The culture of S. aureus used to infect the animals was diluted to the required bacterial density using 5% aqueous hog gastric mucin. The compounds are dissolved or suspended in 0.25% aqueous Methocel® (Methocel®: Hydroxypropyl Methylcullulose, E15 Premium, Dow Chemical Company) for oral administration or sterile distilled water containing 5% dimethylsulfoxide (Fisher Scientific Company, Fairlawn, N.J.) for subcutaneous administration. The mice are dosed at one hour and at four hours post-infection. Mortality is recorded daily until test determination seven days post infection. The number of survivors in each treatment group on the seventh day after infection is used in the calculation of the ED50, the dose of compound that protects 50% of the mice (Litchfield,J. T. and Wildoxon. A simulated method for evaluating dose-effect experiments. J. Pharmacol Exp. Ther., 98:99-113, 1949).

[4] = Staphylococcus aureus, 168 h, Oral Administration, read-out: ED50
[5] = Staphylococcus aureus, sc, 168 h, Subcutaneous Administration, read-out: ED50

Structure (SMILES)	MIC [1] [µg/mL]	MIC [2] [µg/mL]	ED50 [3, 4] [mg/kg]	ED50 [3, 5] [mg/kg]	Minimum Inhibitory Concentration [2] [µg/mL]	ED50 ([3]; Subcutaneous Administration, 10080 min) [mg/kg]
CC(=O)NC[C@H]1CN(c2ccc(-c3ccc(C(C)=NN4CCN(C)CC4)cc3)cc2)C(=O)O1 [Example 25, (l)-N-[3-(4-(4'-Acetylphenyl)phenyl)-2-oxooxazolidin-5-ylmethyl]acetamide 4-Methylpiperazinylhydrazone]	> 128	2 (≈ 4.45 µM)	13.9	5.8	–	–
CC(=O)NC[C@H]1CN(c2ccc(-c3ccc(CO)cc3)cc2)C(=O)O1 [Example 28]	> 128	< 0.13	52.6	30	–	–
CC(=O)NC[C@H]1CN(c2ccc(-c3ccc(C(C)OC(=O)CCC(=O)O)cc3)cc2)C(=O)O1 (stereo partly drawn) [Example 29]	> 128	4 (≈ 8.8 µM)	16.1	9.8	–	–
CC(=O)NC[C@H]1CN(c2ccc(-c3ccc(C(C)OC(=O)CCC(=O)O)cc3)cc2)C(=O)O1 (stereo partly drawn) [Example 30]	–	–	–	–	4	9.8
CC(=O)NC[C@H]1CN(c2ccc(-c3ccc(C#N)cc3)cc2)C(=O)O1 [Example 37, (l)-N-[3-(4-(4'-Cyanophenyl)phenyl)-2-oxooxazolidin-5-ylmethyl]acetamide]	> 128	0.25 (≈ 0.745 µM)	< 1.2	0.6	–	–
CC(=O)NC[C@H]1CN(c2ccc(-c3ccc(-c4nn[nH]n4)cc3)cc2)C(=O)O1 [Example 38, (l)-N-[3-(4-(4'-(5-Tetrazolyl)phenyl)phenyl)-2-oxooxazolidin-5-ylmethyl]acetamide]	> 128	64 (≈ 169 µM)	–	> 90	–	–
CCN(CC)Cc1ccc(-c2ccc(N3C[C@H](CNC(C)=O)OC3=O)cc2)cc1 [Example 43, (l)-N-[3-(4-(4'-diethylaminomethylphenyl)phenyl)-2-oxooxazolidin-5-ylmethyl]acetamide]	> 128	4 (≈ 10.1 µM)	6.4	3.7	–	–
CCCN(CCC)Cc1ccc(-c2ccc(N3C[C@H](CNC(C)=O)OC3=O)cc2)cc1 [Example 44, (l)-N-[3-(4-(4'-di-n-propylaminomethylphenyl)phenyl)-2-oxooxazolidin-5-ylmethyl]acetamide]	> 128	4 (≈ 9.44 µM)	8.6	3.7	–	–
CCCCNCc1ccc(-c2ccc(N3C[C@H](CNC(C)=O)OC3=O)cc2)cc1 [Example 45]	> 128	0.5 (≈ 1.26 µM)	–	13.9	–	–
CCCCN(CCCC)Cc1ccc(-c2ccc(N3C[C@H](CNC(C)=O)OC3=O)cc2)cc1 [Example 46]	> 128	4 (≈ 8.86 µM)	–	30	–	–
CCCCCN(CCCCC)Cc1ccc(-c2ccc(N3C[C@H](CNC(C)=O)OC3=O)cc2)cc1 [Example 47]	> 128	0.5 (≈ 1.04 µM)	–	–	–	–
CCCCCCCCN=Cc1ccc(-c2ccc(N3C[C@H](CNC(C)=O)OC3=O)cc2)cc1 [Example 48]	> 128	< 0.13	–	–	–	–
CCCCCCCCNCc1ccc(-c2ccc(N3C[C@H](CNC(C)=O)OC3=O)cc2)cc1 [Example 49]	> 128	1 (≈ 2.21 µM)	65.2	> 90	–	–
CC(=O)NC[C@H]1CN(c2ccc(-c3ccc(OCCN(C)C)cc3)cc2)C(=O)O1 [Example 66, (l)-N-[3-(4-(4'-N,N-Dimethylaminoethyloxyphenyl)phenyl)-2-oxooxazolidin-5-ylmethyl]acetamide]	> 128	0.5 (≈ 1.26 µM)	–	–	–	–
COc1ccc(-c2ccc(N3C[C@H](CNC(C)=O)OC3=O)cc2)cc1 [Example 75]	> 128	< 0.13	–	–	–	–
CC(=O)NC[C@H]1CN(c2ccc(-c3cncc4ccccc34)cc2)C(=O)O1 [Example 92]	> 128	2 (≈ 5.53 µM)	–	–	–	–
CC(=O)NCC1CN(c2ccc(-c3ccc(N(C)C)cc3)cc2)C(=O)O1 (stereo not drawn) [Example 115]	> 128	16 (≈ 45.3 µM)	–	–	–	–
